Source: PMC6916368, “Cell‐Based Optimization of Covalent Reversible Ketoamide Inhibitors Bridging the Unprimed to the Primed Site of the Proteasome β5 Subunit” (Chemmedchem, 2019)

Columns and labels:
[1] = in vitro; format: cell-based; details: human
Protocol: Remarkably, in THP‐1 cells the initial cytotoxicity is increasing for 3 compared to 27 until 14 h treatment (9‐fold) but is approaching to the end of the assay.
Time‐dependent determination of cell viability. For the determination of time‐dependent cytotoxic activity 5.000 cells per well were plated in a white 384 well‐plate in RPMI‐1640 medium supplemented with 0.1 % FBS. Real‐Time Glo MT cell viability assay (Promega) and inhibitor were added to the final concentration and luminescence was determined using a Tecan M1000 microplate reader at the time points indicated (SI chapter 2b, Figure S9–S17, Table S2).

[2] = system: Jurkat cells; assay: Cell viability endpoint assay (Celltiter Blue, 72 h); format: cell-based; details: Homo sapiens, mean±SD from two independent experiments
Summary of the method: (§1)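 Proteasome inhibitors were tested at 1 nM to 10 μM final on 50.000 cells/well in RPMI-1640 with 0.1 % FBS, plated overnight beforehand, at 37 °C and 5 % CO2. Reagent was incubated 120 minutes before the fluorescence read. IC50 came from a sigmoidal fit of technical triplicates, as the mean of two independent experiments.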

[3] = system: MV4‐11 cells; assay: as above; format: cell-based; details: Homo sapiens, MV4-11, mean±SD from two independent experiments
Summary of the method: as §1

[4] = system: THP‐1 cells; assay: as above; format: cell-based; details: Homo sapiens, mean±SD from two independent experiments
Summary of the method: as §1

[5] = biological target: T1, β1c subunit of isolated human 20S proteasome (Homo sapiens, UniProt P28072); assay: Proteasome inhibition assay (20 S Proteasome Assay Kit, Z‐LLE‐AMC); format: biochemical; details: c = 1 µM, n=1; read-out: Inhibition cCP β1
T1 construct: purchased Enzo Life Sciences
Summary of the method: (§2)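 Isolated human 20S proteasome (200 ng/well) preincubated 30 min with inhibitor, then 100 μM final Suc-LLVY-AMC (β5c, β5i) or Z-LLE-AMC (β1c) added for 60 min; fluorescence read. Residual activity at 100 nM final (n=3; β5c, β5i) or 1 μM (n=1, incl. β1c). IC50s: technical duplicates, mean of three experiments.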

[6] = system: Danio rerio embryos; assay: Danio rerio escape response (neurotoxicity) assay, dechorionated embryos; format: in vivo; details: for Survived (embryos of 4): dechorionated
Protocol: Danio rerio escape response assay. 24 hours past fertilization embryos were dechorionated and transferred into 96‐well plates containing 198 μL of E3 media at 26 °C. […] Incubation times were 24 h, 48 h and 72 h. Survival of the embryos was determined by visual analysis of heart‐beat. For recording the touch evoked escape response, embryos were transferred to a microscopy slide with cavity that is placed on a SL‐300 LED Soft Light (Dörr, Neu‐Ulm, Germany) under a MotionBlitz EoSens mini1‐1 MC1370 high speed camera (Mikrotron, Unterschleißheim, Germany, Figure S18). An escape response was triggered by a touch stimulus at the trunk of embryos using a small sewing needle, which is slightly blunted. For each embryo, a maximum of 50 stimuli was applied. […] No escape response was determined if only one embryo was alive at 96 hpf. Movement was recorded at 96 hpf at 500 frames per second for 3 seconds using the MotionBlitzDirector 2 software. Determination of the amplitude α defined by the body angle spanned between the head, yolk and tail using a MATLAB‐based software tool and plotted using GraphPad Prism 7.02.

[7] = biological target: T2, β5c subunit of isolated human 20S proteasome (Homo sapiens, UniProt P28074); assay: Proteasome inhibition assay (20 S Proteasome Assay Kit, Suc‐LLVY‐AMC); format: biochemical
T2 construct: purchased Enzo Life Sciences
Summary of the method: as §2

[8] = biological target: T3, β5i subunit of isolated human 20S proteasome (Homo sapiens, UniProt P28062); assay: as above; format: biochemical
T3 construct: purchased Enzo Life Sciences
Summary of the method: as §2

[9] = Danio rerio (zebrafish) embryos, in vivo
[10] = Danio rerio (zebrafish) embryos, in vivo, 24 h, 25 μM
[11] = Danio rerio (zebrafish) embryos, in vivo, 24 h, 50 µM
[12] = Danio rerio (zebrafish) embryos, in vivo, 48 h, 25 μM
[13] = Danio rerio, in vivo, 24 h, 25 µM
[14] = Danio rerio, in vivo, 24 h, 50 µM
[15] = Danio rerio, in vivo, 48 h, 25 µM

Compound `Cc1cc(C)c(Oc2ccccc2)cc1NC(=O)C(=O)[C@H](CC(C)C)NC(=O)[C@H](CC(C)C)NC(=O)[C@H](CC(C)C)NC(=O)c1cc(Cl)ccc1Cl` [Compound 27, 2,5‐Dichloro‐N‐((S)‐1‐(((S)‐1‐(((S)‐1‐((2,4‐dimethyl‐5‐phenoxyphenyl)amino)‐5‐methyl‐1,2‐dioxo‐hexan‐3‐yl)amino)‐4‐methyl‐1‐oxopentan‐2‐yl)amino)‐4‐methyl‐1‐oxopentan‐2‐yl)benzamide] has an IC50 at 13 h [1] of 300 to 600 nM, an IC50 [2] of 11 ± 1 nM and an IC50 [3] of 7.4 ± 2.6 nM. For the same compound, the IC50 [4] was 66 ± 1 nM, the inhibition at 1 µM [5] was -48% and the Fold-response [6, 9] was 29. For the same compound, the “Relative reflexes / Stimuli, Mean” value [6, 9] was 0,81, the “Number of movements per 100 ms, Difference between means” value [6, 10] was 0,4767 ± 0,4422 and the “Reflex Duration” value [6, 10] was 295,3 ± 28,5 ms. For the same compound, the “Relative reflexes / Stimuli” value [6, 10] was 1,000, the “mean reflexes per stimuli” value [6, 10] was 100% and the “C-Bend Duration” value [6, 11] was 19,2 ± 2,2 ms. The “Number of movements per 100 ms, Difference between means” value [6, 11] was 0,4019 ± 0,4349, the “Number of total movements, Difference between means” value [6, 11] was 16,56 ± 4,371 and the “Relative reflexes / Stimuli” value [6, 11] was 1,000. For the same compound, the “mean reflexes per stimuli” value [6, 11] was 100%, the “Number of movements per 100 ms, Difference between means” value [6, 12] was 0,545 ± 0,4127 and the “Reflex Duration” value [6, 12] was 403,6 ± 30,9 ms. For the same compound, the “Relative reflexes / Stimuli” value [6, 12] was 0,545, the “mean reflexes per stimuli” value [6, 12] was 55% and the “C-Bend Amplitude, Difference between means” value [6, 13] was “- 2,833 ± 19,93”. The “C-Bend Duration” value [6, 13] was 14 ± 0,8165 ms, the “C-Bend duration, Difference between means” value [6, 13] was -5,667 ± 1,826 and the “Number of total movements, Difference between means” value [6, 13] was “- 2,611 ± 3,6”. The “Reflex Duration” value [6, 13] was 295,3 ± 28,53 ms, the “Reflex Duration, Difference between means” value [6, 13] was “- 95,33 ± 66,93” and the “C-Bend Amplitude, Difference between means” value [6, 14] was “- 7,333 ± 15,18”. The “C-Bend Duration” value [6, 14] was 19,17 ± 2,212 ms, the “C-Bend duration, Difference between means” value [6, 14] was “- 0,5 ± 2,458” and the “Reflex Duration” value [6, 14] was 799 ± 91,81 ms. For the same compound, the “Reflex Duration, Difference between means” value [6, 14] was 408,3 ± 96,75, the “C-Bend Amplitude, Difference between means” value [6, 15] was “- 9,167 ± 17,34” and the “C-Bend Duration” value [6, 15] was 15,56 ± 0,5031 ms. The “C-Bend duration, Difference between means” value [6, 15] was -4,111 ± 1,464, the “Number of total movements, Difference between means” value [6, 15] was 1,889 ± 3,151 and the “Reflex Duration” value [6, 15] was 403,6 ± 30,92 ms. For the same compound, the “Reflex Duration, Difference between means” value [6, 15] was 12,89 ± 59,4, the “overall survival at low doses” value ([6]; dechorionated embryos) was 58% and the “Survived (embryos of 4)” value ([6]; 25 µM, 24 h) was 2. For the same compound, the “Survived (embryos of 4)” value ([6]; 25 µM, 48 h) was 2, the “Survived (embryos of 4)” value ([6]; 50 µM, 24 h) was 3 and the inhibition at 1 µM ([7]; c = 1 µM, n=1, read-out: Inhibition cCP β5) was 91%. For the same compound, the inhibition at 0.1 µM ([7]; c=100 nM, read-out: Rel. Inhibition β5c) was 83%, the IC50 ([7]; purified proteasome) was 23 nM and the “Fold‐IC50 β5i/β5c” value ([7]; selectivity β5c over β5i) was 4.2. It also gave an inhibition at 1 µM ([8]; c = 1 µM, n=1, read-out: Inhibition iCP β5) of 68%, an inhibition at 0.1 µM ([8]; c=100 nM, read-out: Rel. Inhibition β5i) of 58% and an IC50 ([8]; purified proteasome) of 96 nM.
